Earlier results in patent US20230330223A1, “TREATMENT OF HER2 NEGATIVE, MAMMAPRINT HIGH RISK 2 BREAST CANCER” (Agendia N.V., priority 2020, published 2023).

Tested on: locally advanced breast cancer (Stage II/III)
Settings: added to standard neoadjuvant chemotherapy; ERBB2-negative (HER2-negative) breast cancer

For “pembrolizumab: immune check point inhibitor, PD1/PDL1 inhibitor antibody (Merck)”, the “estimated pCR rates, change versus standard chemotherapy” value is listed as “more than doubled”.
